Legend:
[1] = system: NW231 breast cancer xenograft; experiment: NW231 xenograft tumor growth; assay type: in vivo, mouse; settings: NW231, SCID mice; biologics 12 mg/kg IP Q4D×6; doxorubicin 1 mg/kg IV days 0, 4, 8, 13, 18 (FIG. 20D)
Experimental: In FIG. 20D, NW231 breast cancer cells (10 million) were implanted subcutaneously into SCID mice, and mice were randomized when the tumors reached ˜150 mm^3 and dosed with biologics at 12 mg/kg intraperitoneally on a Q4D×6 (one dose given every 4 days for a total of 6 doses), while doxorubicin was dosed intravenously at 1 mg/kg on days 0, 4, 8, 13 and 18.

[2] = system: SCC-15 head and neck cancer xenograft; experiment: SCC-15 xenograft tumor growth; assay type: in vivo, mouse; settings: SCC-15, SCID mice; biologics 12 mg/kg IP Q7D×6; carboplatin 50 mg/kg IP Q4D×4 (FIG. 21E)
Experimental: Radiation is a commonly used cytotoxic therapy in oncology. […] SCC-15 head and neck cancer cells (1 million) were implanted subcutaneously into SCID mice, and mice were randomized when the tumors reached ˜200 mm^3 and dosed with biologics at 12 mg/kg intraperitoneally on a Q4D×6 (one dose given every 4 days for a total of 6 doses), while the radiation was directed at the tumor with a single radiation dose of 15 Gy on day 0.
SCC-15 head and neck cancer cells (1 million) were implanted subcutaneously into SCID mice, and mice were randomized when the tumors reached ˜200 mm^3 and dosed with biologics at 12 mg/kg intraperitoneally on a Q7D×6 (one dose given every 7 days for a total of 6 doses), while carboplatin was dosed intraperitoneally […] at 50 mg/kg Q4D×4 (one dose given every 4 days for a total of 4 doses).

[3] = system: EBC-1 (human squamous NSCLC) xenograft; experiment: EBC-1 xenograft tumor growth; assay type: in vivo, mouse
Experimental: For the experiments, five million cells (EBC-1) that were grown in vitro were inoculated subcutaneously per mouse into the right flank of female SCID-Beige mice. Tumors were size matched at ˜200 mm^3, and dosed intraperitoneally (IP) Q4D×6 (1 dose given every 4 days for a total of 6 doses) as shown in FIG. 13A. Measurements of the length (L) and width (W) of the tumors were taken via electronic caliper and the volume was calculated according to the following equation: V=L×W^2/2.
For this experiment, tumors were size matched at ˜200 mm^3, and dosed intraperitoneally (IP) Q7D×2 (1 dose given every 7 days for a total of 2 doses) as shown in FIG. 13C. […]
5 million cells were implanted subcutaneously into SCID/Beige mice, and mice were randomized when tumor group mean volumes reached ˜200 mm^3.
In FIG. 20C, EBC1 cells (5 million) were implanted subcutaneously into SCID/Beige mice and mice were randomized when the tumors reached ˜200 mm^3 and dosed with biologics at 6 mg/kg intraperitoneally on a Q7D×2 (one dose given every 7 days for a total of 2 doses), while erlotinib was dosed orally daily for 10 days at 50 mg/kg, and carboplatin was dosed intraperitoneally Q4D×3 (one dose given every 4 days for a total of 3 doses) at 50 mg/kg.
In FIG. 21B, EBC-1 squamous NSCLC cells (5 million) were implanted subcutaneously into SCID/Beige mice, and mice were randomized when the tumors reached ˜200 mm^3 and dosed with biologics at 6 mg/kg intraperitoneally on a Q7D×2 (one dose given every 7 days for a total of 2 doses), while gemcitabine was dosed intraperitoneally at 100 mg/kg (Q3D×3) (one dose given every three days for 3 doses total).

[4] = system: NCI-H1650 (NSCLC) xenograft; experiment: NCI-H1650 xenograft tumor growth; assay type: in vivo, mouse; settings: NCI-H1650, SCID/Beige mice; for TGD, single agent / TGImax, single agent: biologics 6 or 12 mg/kg IP Q4D×6, erlotinib 100 mg/kg orally daily ×10, carboplatin 50 mg/kg IP Q4D×4 (FIG. 20A, 22A)
Experimental: The potency of anti-huLRRC15 ADCs as compared to current standards of care was assessed in xenograft models with NCI-H1650 ([…]), HN5 (head and neck), EBC-1 (squamous NSCLC), NW231 (breast) and PANC1 (pancreatic) cancer cells. […] For FIG. 20A, NCI-H1650 cells (5 million cells) were implanted subcutaneously into SCID/Beige mice and tumors were randomized when they reached ˜200 mm^3 and dosed with biologics at 6 or 12 mg/kg intraperitoneally on a Q4D×6 (one dose given every 4 days for a total of 6 doses), while erlotinib was dosed orally daily for 10 days at 100 mg/kg, and carboplatin was dosed intraperitoneally Q4D×4 (one dose given every 4 days for a total of 4 doses) at 50 mg/kg.
NCI-H1650 NSCLC cancer cells (5 million) were implanted subcutaneously into SCID/Beige mice, and mice were randomized when the tumors reached ˜200 mm^3 and dosed with biologics at 6 or 12 mg/kg intraperitoneally on a Q4D×6 (one dose given every 4 days for a total of 6 doses), while erlotinib was dosed orally daily at 100 mg/kg for 10 doses.
NCI-H1650 NSCLC cancer cells (5 million) were implanted subcutaneously into SCID/Beige mice, and mice were randomized when the tumors reached ˜200 mm^3 and dosed on day 0 with isotype or ADC at 0.1, 0.3, or 0.6 mg/kg intraperitoneally.
NCI-H1650 adeno NSCLC cells (5 million) were implanted subcutaneously into SCID/Beige mice, and mice were randomized when the tumors reached ˜225 mm^3 and dosed with ADC at 0.6 mg/kg or isotype antibody at 12 mg/kg intraperitoneally once on day 0.

[5] = system: HN5 (head and neck) xenograft; experiment: HN5 xenograft tumor growth; assay type: in vivo, mouse; settings: HN5, NSG mice; ADC 4.5 mg/kg IP Q4D×6; erlotinib 150 mg/kg orally daily ×10; cetuximab 3 mg/kg IP Q7D×3 (FIG. 20B)
[6] = system: EBC-1 (human squamous NSCLC) xenograft; experiment: EBC-1 xenograft tumor growth; assay type: in vivo, mouse; settings: EBC-1, SCID/Beige mice; huM25-vcMMAE-E2 at 3 mg/kg (method: biologics 6 mg/kg IP Q7D×2); method: gemcitabine 100 mg/kg IP Q3D×3, result sentence names docetaxel (FIG. 21B)
[7] = system: HPAF-II (human pancreatic) xenograft; experiment: HPAF-II xenograft tumor growth; assay type: in vivo, mouse; settings: SCID mice, biologics 6 mg/kg IP Q4D×6, gemcitabine 100 mg/kg IP (Q3D×4)×2 (FIG. 21A)
Experimental: For the experiment, 1 million cells (HPAF-II) that were grown in vitro were inoculated subcutaneously per mouse into the right flank of female SCID-Beige mice. Tumors were size matched at ˜200 mm^3, and dosed intraperitoneally (IP) Q4D×6 (1 dose given every 4 days for a total of 6 doses) as shown in FIG. 13B.
In FIG. 21A, HPAF-II pancreatic cancer cells (1 million) were implanted subcutaneously into SCID mice, and mice were randomized when the tumors reached ˜200 mm^3 and dosed with biologics at 6 mg/kg intraperitoneally on a Q4D×6 (one dose given every 4 days for a total of 6 doses), while gemcitabine was dosed intraperitoneally at 100 mg/kg (Q3D×4)×2 (one dose given every three days for 4 doses per cycle, 2 cycles with 8 total doses given).

[8] = system: PANC1 (pancreatic) xenograft; experiment: PANC1 xenograft tumor growth; assay type: in vivo, mouse; settings: PANC1, SCID mice; biologics 12 mg/kg IP Q4D×6; gemcitabine 100 mg/kg IP Q3D×4 (FIG. 20E)
Experimental: In FIG. 20E, PANC1 pancreatic cancer cells (10 million) were implanted subcutaneously into SCID mice, and mice were randomized when the tumors reached ˜125 mm^3 and dosed with biologics at 12 mg/kg intraperitoneally on a Q4D×6 (one dose given every 4 days for a total of 6 doses), while gemcitabine was dosed intraperitoneally at 100 mg/kg Q3D×4) (one dose given every three days for 4 doses total).

human BM-MSC (Lonza) = experiment: In vitro cell killing of human mesenchymal stem cells with TGFβ; assay type: cell-based; settings: human BM-MSC (Lonza) treated with 10 ng/mL TGFβ (FIG. 23B)
huLRRC15 = target: T1, huLRRC15 (Homo sapiens, UniProt Q8TF66); experiment: Flow cytometry competition assay against labeled muM25 (muM25-AF488) on U118MG cells; assay type: binding; settings: 1 μg/mL muM25-AF488, unlabeled test antibody 0.0001-100 μg/mL
T1 construct: endogenous in cells; host or cells: U118MG glioblastoma cells
T1 sequence (Q8TF66 22-581): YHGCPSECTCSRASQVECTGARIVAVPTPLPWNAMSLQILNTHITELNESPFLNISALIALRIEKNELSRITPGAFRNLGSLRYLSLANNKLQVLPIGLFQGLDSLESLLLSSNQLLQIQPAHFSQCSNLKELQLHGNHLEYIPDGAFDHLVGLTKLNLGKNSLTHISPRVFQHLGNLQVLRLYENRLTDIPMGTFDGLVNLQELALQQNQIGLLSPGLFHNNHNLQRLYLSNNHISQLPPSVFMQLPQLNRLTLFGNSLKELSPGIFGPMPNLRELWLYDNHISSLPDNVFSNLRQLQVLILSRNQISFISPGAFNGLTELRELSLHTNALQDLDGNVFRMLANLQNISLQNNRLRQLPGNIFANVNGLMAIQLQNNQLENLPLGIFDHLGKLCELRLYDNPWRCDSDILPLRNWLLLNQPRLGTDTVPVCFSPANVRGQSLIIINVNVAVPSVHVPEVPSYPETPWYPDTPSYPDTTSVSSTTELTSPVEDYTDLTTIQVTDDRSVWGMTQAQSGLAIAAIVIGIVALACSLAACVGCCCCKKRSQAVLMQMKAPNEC
Source text: Isotype control antibodies (human or mouse) were used as negative controls, and unlabeled muM25 was used as a positive control.
In this assay, competition due to a test antibody binding to the same or a proximal epitope as the labeled reference antibody reduce binding of the reference labeled antibody.

[9] = EBC1, SCID/Beige mice, biologics 6 mg/kg IP Q7D×2, erlotinib 50 mg/kg orally daily ×10, carboplatin 50 mg/kg IP Q4D×3 (FIG. 20C)
[10] = EBC-1, SCID/Beige mice, biologics 3 or 6 mg/kg IP Q4D×6, method: docetaxel 7.5 mg/kg IV, result sentence names gemcitabine (FIG. 21C)
[11] = EBC-1, SCID mice, 0.6 mg/kg Q7D×2 (FIG. 24H)
[12] = 0.6 mg/kg IP once on day 0 (FIG. 24G)

COc1cccc2c1C(=O)c1c(O)c3c(c(O)c1C2=O)C[C@@](O)(C(=O)CO)C[C@@H]3O[C@H]1C[C@H](N)[C@H](O)[C@H](C)O1 [doxorubicin, reference compound]
TGImax [1]: 65%

N.N.O=C([O-])C1(C(=O)[O-])CCC1.[Pt+2] [carboplatin, reference compound]
TGD, single agent [2]: 33%
TGImax, single agent [2]: 56%
TGD [3, 9]: 43%
TGImax [3, 9]: 39%
TGD, single agent [4]: 77%
TGImax, single agent [4]: 56%

C#Cc1cccc(Nc2ncnc3cc(OCCOC)c(OCCOC)cc23)c1 [erlotinib, reference compound]
TGD [5]: 12%
TGImax [5]: 23%
TGD [3, 9]: 14%
TGImax [3, 9]: 27%
TGD, single agent [4]: 77%
TGImax, single agent [4]: 90%

CC(=O)O[C@@]12CO[C@@H]1C[C@H](O)[C@@]1(C)C(=O)[C@H](O)C3=C(C)[C@@H](OC(=O)[C@H](O)[C@@H](NC(=O)OC(C)(C)C)c4ccccc4)C[C@@](O)([C@@H](OC(=O)c4ccccc4)[C@H]21)C3(C)C [docetaxel, reference compound]
TGImax, single agent [6]: 77%
TGD, single agent ([3]; EBC-1, SCID/Beige mice, huM25-vcMMAE-E2 at 3 mg/kg (method: biologics 6 mg/kg IP Q7D×2), method: gemcitabine 100 mg/kg IP Q3D×3, result sentence names docetaxel (FIG. 21B)): 48%

Nc1ccn([C@@H]2O[C@H](CO)[C@@H](O)C2(F)F)c(=O)n1 [gemcitabine, reference compound]
TGD, single agent [7]: 117%
TGImax, single agent [7]: 73%
TGD, single agent [3, 10]: 171%
TGImax, single agent [3, 10]: 95%
TGImax [8]: 55%

B1: huAD208.4.1-PBD-DAR2: PBD synthon vaPBD conjugated with anti-huLRRC15 antibody huAD208.4.1 to yield a DAR of 2 (conjugate)
VH: EVQLVQSGAEVKKPGSSVKVSCKASGFTFTDYYIHWVKQAPGQGLEWIGLVYPYIGGTNYNQKFKGKATLTVDTSTTTAYMEMSSLRSEDTAVYYCARGDNKYDAMDYWGQGTTVTVSS
VL: DIVLTQSPDSLAVSLGERATINCRASQSVSTSSYSYMHWYQQKPGQPPKLLIKYASSLESGVPDRFSGSGSGTDFTLTISSLQAEDVAVYYCEQSWEIRTFGGGTKVEIK
TGD [3, 11]: > 600%
TGImax [3, 11]: 91%
cell killing effect relative to isotype-PBD-DAR2 at the same doses (human BM-MSC (Lonza)): higher cell killing effect
TGD [4, 12]: > 388%
TGImax [4, 12]: 95%

B2: muAD209.9.1: murine anti-huLRRC15 antibody; VH SEQ ID NO:76, VL SEQ ID NO:77 (antibody, V domains shown)
VH: QIQLVQSGPELKKPGETVKISCKASGFAITNFGMNWVKQAPGKGLKWMGWINLYTGEPTFADDFKGRFAFSLETSASTAYLQINNLKNEDTVIYFCARKGETYYRYDGFAYWGQGTLVTVSA
VL: DIVMTQAAPSVPVTPGESVSISCRSSKSLLHSNGNTHLYWFLQRPGQSPQLLIYRMSNLASGVPDRFSGSGSGTAFTLRISRVEAEDVGVYYCMQLLEYPYTFGGGTKLEIE
competition with labeled muM25 for binding cells expressing huLRRC15 (huLRRC15): do not inhibit

Reference: patent US11045480B2, “Anti-huLRRC15 antibody drug conjugates and methods for their use” (AbbVie Inc., priority 2015, dated 2021)
